Experimental data taken from the OligoGym collection.
After the bases stand the sugars from the 5' end (letter, count) and the backbone: PS all phosphorothioate, else s phosphorothioate and o phosphodiester by linkage. Methylation of C is not given here. l = locked nucleic acid (LNA); d = 2'-deoxy (DNA)

Biological target: SNHG14
Settings: ASO
[1] = Mouse Primary Neuronal Cell, 0.005 µM

Sequence	target mRNA inhibition (Human Neuronal Cell, 0.2 µM) [%]	target mRNA inhibition (Human Neuronal Cell, 1 µM) [%]	target mRNA inhibition (Human Neuronal Cell, 7.5 µM) [%]	further results
CCCTCAAAGTAATTTC (sugars l4 d10 l2, PS)	21	20		
TTTATTTCCATTTATTTTC (sugars ldldlddddddddlldlll, PS)			53	
AAGATCATTCTCAACAAT (sugars l2 d2 l2 d6 l6, PS)			47	
TTCTGTATACACCATCC (sugars l1 d14 l2, PS)			46	
TTATAGCCATTCTATCT (sugars l1 d11 l2 d1 l2, PS)			40	
TCTTTCCATTTATTTCCATT (sugars l2 d4 l1 d10 l3, PS)			57	
CAACATTATTAACCACCTT (sugars l3 d1 l1 d11 l3, PS)			61	
TGTTTATACCCTTTCCAA (sugars l2 d2 l1 d11 l2, PS)			64	
TCTTTCCATTTATTTCCAT (sugars l2 d3 l1 d11 l2, PS)			54	
GTTTCCATCTACTATTAA (sugars ldddlldddddddlldll, PS)			53	
TTTTTTTCTTACTATCTTCA (sugars lldldddddddddlddddll, PS)			49	
CTTTAATGCTTCTAAC (sugars l2 d10 l4, PS)	-3	26		
TTCAACCCTAATCACT (sugars l4 d10 l2, PS)	39	50		
TGTTTATACCCTTTCCAA (sugars l1 d1 l2 d12 l2, PS)			63	
CTCTTTAGATTCATCC (sugars l4 d10 l2, PS)	56	48		
ACACATTATATTTAAACTA (sugars l3 d13 l3, PS)	8	-2		
AAAATCTCAACTACCATTTT (sugars l3 d11 l2 d1 l3, PS)			12	
GTTTCCATCTACTATTAAT (sugars ldldddddddddlldddll, PS)			51	
TTATTTATACACCATC (sugars l2 d10 l4, PS)	78	74		
CTGCTTAATTATATCA (sugars l4 d10 l2, PS)	35	38		
ACCTGTAATACTTCTT (sugars l4 d10 l2, PS)	48	46		

Sequence	target mRNA inhibition (Human Neuronal Cell, 0.2 µM) [%]	target mRNA inhibition (Human Neuronal Cell, 1 µM) [%]	target mRNA inhibition (Human Neuronal Cell, 7.5 µM) [%]	further results
GCACATTCTTTCTATACC (sugars ldldlldddddddlddll, PS)			54	
GTTTATACCCTTTCCAAT (sugars ldlldddddddddldlll, PS)			63	
TCTTCAAGAATTCTCT (sugars l2 d10 l4, PS)	44	46		
AGATCATTCTCAACAATTA (sugars ldlddldddddddllldll, PS)			50	
TTCTACTATACTTTCCTCT (sugars l1 d14 l1 d1 l2, PS)			50	
GCTCACACTAATTATT (sugars l2 d10 l4, PS)	25	43		
CTACATCTCATACTTGC (sugars l3 d11 l3, PS)	-4	-27		target mRNA inhibition (Human Neuronal Cell, 5 µM): 1%; target mRNA inhibition [1]: 94.6%
TACATATTGTACTTCT (sugars l4 d10 l2, PS)	18	23		
TTTCCATTTATTTCCATTTA (sugars l2 d2 l1 d12 l3, PS)			62	
AGCAACATTATTAACCACC (sugars l2 d1 l2 d12 l2, PS)			63	
GAAACTATTACTCCTA (sugars l2 d10 l4, PS)	44	55		
TTATAGCCATTCTATCT (sugars llddlddddddlddlll, PS)			39	
TTTGACATTCCATCTCC (sugars l2 d12 l3, PS)	38	55		
TACACTTAATTATACTTCCA (sugars lddddldddddddldlddll, PS)			60	
TATTGATTCAATTCCCT (sugars l2 d9 l1 d2 l3, PS)			51	
ATCATTTCATATTACTA (sugars l3 d11 l3, PS)	43	56		
TTGTCTCTAATCCTAT (sugars l2 d10 l4, PS)	38	54		
TACTCTGCAATACACCA (sugars l1 d3 l1 d10 l2, PS)			54	
CCTACATCTCATACTTG (sugars l2 d13 l2, PS)	9	10		target mRNA inhibition (Human Neuronal Cell, 5 µM): 36%; target mRNA inhibition [1]: 79.8%
CTCATCCCTCCAAGAAA (sugars l4 d11 l2, PS)	-3	-15		target mRNA inhibition (Human Neuronal Cell, 5 µM): -9%; target mRNA inhibition [1]: 90.9%
TTTATTTCCATTTATTTTC (sugars lllddldddddddllldll, PS)			51	

Sequence	target mRNA inhibition (Human Neuronal Cell, 0.2 µM) [%]	target mRNA inhibition (Human Neuronal Cell, 1 µM) [%]	target mRNA inhibition (Human Neuronal Cell, 7.5 µM) [%]	further results
TTATAGCCATTCTATCT (sugars llddlddddddldldll, PS)			5	
ACTTTACTGCCATAATC (sugars l3 d11 l3, PS)	40	33		
ATCTGAATCAAACCTT (sugars l2 d10 l4, PS)	45	45		
TCCTCTGCTTATAACT (sugars l3 d11 l2, PS)	51	77		
CTCAAAGATCATTCTCA (sugars l1 d2 l1 d7 l6, PS)			16	
AGCTCCATATTTAAAT (sugars l4 d10 l2, PS)	10	-9		
CCTAAGCTCCATATTT (sugars l4 d10 l2, PS)	39	45		
TTCTGTATACACCATCC (sugars ldddlddddddddldll, PS)			65	
TTTTTATACCTTTCTTTAAC (sugars llldlddddddddldldlll, PS)			62	
AAAATCTCAACTACCATTTT (sugars l1 d12 l4 d1 l2, PS)			42	
CTCAAAGATCATTCTCA (sugars ldldldddddddlldll, PS)			65	
TAAAATTATTTATACACCA (sugars lddlllddddddldlllll, PS)			30	
TACTCTGCAATACACC (sugars l1 d2 l2 d9 l2, PS)			65	
AAACTACCCTGCACAA (sugars l3 d10 l3, PS)	22	39		
ATCATCAGTTACATCA (sugars l4 d10 l2, PS)	62	63		
CCTCTGACAACCATTA (sugars l4 d10 l2, PS)	30	31		
ATTGATTCAATTCCCTT (sugars ldddldddddddlldll, PS)			57	
GTTCTACTATACTTTCCT (sugars l2 d1 l1 d12 l2, PS)			60	
TCCATTTATTTCCATTTAT (sugars ldlldddddddddldddll, PS)			50	
CTCTTTGTCAAATACT (sugars l4 d10 l2, PS)	33	13		
TAGTCCTTCCTTTAACC (sugars l2 d13 l2, PS)	20	16		
